Assay [1] relates to Pyricularia oryzae. The experiment in a line: whole plant or invertebrate. The format is in vivo. The conditions noted are these: 24 h, read-out: Efficacy (% control), disease severity vs untreated check.
Assay [2] relates to Fusarium culmorum. As to the kind of experiment: Greenhouse Fusarium culmorum test in wheat, preventive. The class given is in vivo. The conditions noted are these: 24 h, read-out: Efficacy (% control), disease severity vs untreated check. In outline:
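Young greenhouse wheat sprayed preventively at stated rates (compounds in 2% DMSO/acetone, diluted in water), inoculated one day later with 2×10^6 Fusarium culmorum spores in 2% malt, held at 24 °C, 80-90% RH. Disease severity (0-100%) rated 3, 7, 10 and 15 days after application; % control versus untreated, phytotoxicity also recorded.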

In assay [3] the test system is Alternaria solani. As to the kind of experiment: Alternaria solani (early blight of tomato/potato) in vitro test, radial growth on Potato Dextrose Agar. The class given is cell-based. The conditions noted are these: for inhibition of growth at 300 ppm: 168 h, seven days, 25° C., read-out: % control compared to the untreated check (radial growth); for inhibition at 300 ppm: Table 3 comparison, read-out: ALTESO % inhibition.

For a further assay, the system named is Rhizoctonia solani. The experiment in a line: Rhizoctonia solani (rice sheath blight/potato black scurf) in vitro test, radial growth on Potato Dextrose Agar. The format is cell-based. The settings on record: for inhibition of growth at 300 ppm: 168 h, seven days, 25° C., read-out: % control compared to the untreated check (radial growth); for inhibition at 300 ppm: Table 3 comparison, read-out: RHIZSO % inhibition.

A further assay concerns Botrytis cinerea. As to the kind of experiment: Botrytis cinerea (gray mold) in vitro test, radial growth on Potato Dextrose Agar. The class given is cell-based. The conditions noted are these: for inhibition of growth at 300 ppm: 168 h, seven days, 22° C., read-out: % (control) compared to the untreated check (radial growth); for inhibition at 300 ppm: read-out: BOTRCI % inhibition.

The next assay has as its system Botrytis cinera. The experiment in a line: Greenhouse Botrytis cinera test in tomato, preventive. The class given is in vivo. The conditions noted are these: 24 h, plants sprayed one day before inoculation, read-out: Efficacy (% control), disease severity vs untreated check.
For a further assay, the system named is Colletotrichum capsici. The experiment in a line: Colletotrichum capsici (anthracnose) in vitro test, radial growth on Potato Dextrose Agar. The class given is cell-based. The conditions noted are these: Colletotrichum truncatum; for inhibition of growth at 300 ppm: 168 h, seven days, 25° C., read-out: % control compared to the untreated check (radial growth); for inhibition at 300 ppm: Table 3 comparison, read-out: COLLCA % inhibition.

In assay [4] the test system is Pyricularia oryzae. As to the kind of experiment: microbe, parasite or virus in culture. The settings on record: for inhibition of growth at 300 ppm: 168 h, read-out: % control compared to the untreated check (radial growth); for inhibition at 300 ppm: read-out: PYRIOR % inhibition. The class given is cell-based.
In assay [5] the test system is Fusarium culmorum. The experiment in a line: Fusarium culmorum (foot rot of cereals) in vitro test, radial growth on Potato Dextrose Agar. The conditions noted are these: Fusarium culmorum; for inhibition of growth at 300 ppm: 168 h, read-out: % control compared to the untreated check (radial growth); for inhibition at 300 ppm: Table 3 comparison, read-out: FUSACU % inhibition. The format is cell-based.

In another assay the test system is Septoria lycopersici. The experiment in a line: Septoria lycopersici (leaf spot of tomato) in vitro test, radial growth on Potato Dextrose Agar. The class given is cell-based. The conditions noted are these: 168 h, seven days, 25° C., read-out: % control compared to the untreated check (radial growth).
For a further assay, the system named is Corynespora cassicola. The experiment in a line: Table 3 comparative % inhibition, Corynespora cassicola (CORYCA). The class given is cell-based. The conditions noted are these: Table 3 comparison.
In assay [6] the test system is Alternaria solani. As to the kind of experiment: Greenhouse Alternaria solani test in tomato, preventive. The format is in vivo. The conditions noted are these: 24 h, tomato plants sprayed one day before inoculation, read-out: Efficacy (% control), disease severity vs untreated check. In outline:
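Preventive test: greenhouse tomato plants sprayed with compounds (2% DMSO/acetone in water) at stated rates, inoculated one day later with Alternaria solani spores (0.24×10^6 in 2% malt), held at 22-24 °C, 90-95% RH. % control versus untreated plants; phytotoxicity also scored.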

The mark [7] stands for this setting: Dose 300 ppm, Table 3 comparison.

Where two headings read alike, the source gives them in different places. Where only a bound is given, the exact number is not on record here.

As usually defined, the inhibition is the relative decrease from the control value, in per cent.

Consider `CCN(C)C=Nc1cc(C)c(Cc2cc(C(F)(F)F)cc(C(F)(F)F)c2)cc1Cl` [Compound 96, N′-(4-(3,5-bis(trifluoromethyl)benzyl)-2-chloro-5-methylphenyl)-N-ethyl-N-methylformimidamide], for which the pest or weed control at 500 ppm in the assay on Pyricularia oryzae [1] and in the assay with Fusarium culmorum [2] was 70 to 100% in each case. Further, the inhibition of growth at 300 ppm in the assay on Alternaria solani [3] is greater than 75%.

Consider `CCN(C)C=Nc1cc(C)c(Cc2ccccc2C(F)(F)F)cc1Cl` [Compound 103, N′-(2-chloro-5-methyl-4-(2-(trifluoromethyl)benzyl)phenyl)-N-ethyl-N-methylformimidamide], for which the inhibition of growth at 300 ppm is greater than 80% with Rhizoctonia solani; greater than 75% in the assay with Alternaria solani [3]; greater than 80% in the assay on Botrytis cinerea; greater than 80% in the assay on Colletotrichum capsici; greater than 75% in the assay on Pyricularia oryzae [4]. The pest or weed control at 500 ppm in the assay on Pyricularia oryzae [1] and in the assay on Botrytis cinera was 70 to 100% in each case.

On to `CCN(C)C=Nc1cc(C)c(Cc2ccc(C(F)(F)F)cc2)cc1C` [Compound 94, N′-(2,5-dimethyl-4-(4-(trifluoromethyl)benzyl)phenyl)-N-ethyl-N-methylformimidamide], for which the inhibition of growth at 300 ppm is greater than 80% in the assay with Rhizoctonia solani; greater than 75% in the assay with Alternaria solani [3]; greater than 80% with Botrytis cinerea; greater than 80% with Colletotrichum capsici; 75% in the assay with Fusarium culmorum [5]; greater than 70% with Septoria lycopersici. Also, the inhibition of growth at 300 ppm with Pyricularia oryzae [4] was greater than 75%. Besides, the pest or weed control at 500 ppm with Pyricularia oryzae [1] and with Botrytis cinera was 70 to 100% in each case.

For the molecule `CCN(C)C=Nc1cc(C)c(Cc2cccc(Cl)c2Cl)cc1C` [Compound 133, N′-(4-(2,3-dichlorobenzyl)-2,5-dimethylphenyl)-N-ethyl-N-methylformimidamide], the inhibition of growth at 300 ppm was greater than 80% in the assay on Rhizoctonia solani; greater than 75% in the assay with Alternaria solani [3]; greater than 80% in the assay on Botrytis cinerea; greater than 80% with Colletotrichum capsici; greater than 70% in the assay on Septoria lycopersici; greater than 75% with Pyricularia oryzae [4]. The pest or weed control at 500 ppm in the assay on Pyricularia oryzae [1] and in the assay on Botrytis cinera was 70 to 100% each time.

As to `CCN(C)C=Nc1cc(Cl)c(Cc2cccc(C(F)(F)F)c2)cc1Cl` [Compound 183, N′-(2,5-dichloro-4-(3-(trifluoromethyl)benzyl)phenyl)-N-ethyl-N-methylformimidamide], the inhibition of growth at 300 ppm in the assay with Rhizoctonia solani is greater than 80%; in the assay on Botrytis cinerea, greater than 80%; with Pyricularia oryzae [4], greater than 75%. The pest or weed control at 500 ppm in the assay on Pyricularia oryzae [1] and with Fusarium culmorum [2] was 70 to 100% each time.

As for `CCN(C)C=Nc1cc(Cl)c(Cc2ccccc2F)cc1Cl` [Compound 149, N′-(2,5-dichloro-4-(2-fluorobenzyl)phenyl)-N-ethyl-N-methylformimidamide], the pest or weed control at 500 ppm in the assay on Pyricularia oryzae [1] and in the assay on Fusarium culmorum [2] was 70 to 100% each time. In addition, the inhibition of growth at 300 ppm in the assay with Alternaria solani [3] is greater than 75%; with Botrytis cinerea, greater than 80%; in the assay on Pyricularia oryzae [4], greater than 75%.

Take `CCN(C)C=Nc1cc(C)c(Cc2ccccc2C(F)(F)F)cc1C` [Compound 93, N′-(2,5-dimethyl-4-(2-(trifluoromethyl)benzyl)phenyl)-N-ethyl-N-methylformimidamide]: the inhibition of growth at 300 ppm in the assay on Rhizoctonia solani is greater than 80%; with Alternaria solani [3] it was greater than 75%; with Botrytis cinerea, greater than 80%; in the assay with Colletotrichum capsici, greater than 80%; in the assay on Fusarium culmorum [5], 75%; in the assay on Septoria lycopersici, greater than 70%. In addition, in the assay on Pyricularia oryzae [4], the inhibition of growth at 300 ppm is greater than 75%. Moreover, the pest or weed control at 500 ppm in the assay on Pyricularia oryzae [1] lay in the range of 70 to 100%.

With `CCN(C)C=Nc1cc(C)c(Cc2ccccc2)cc1Cl` [Compound 74, N′-(4-benzyl-2-chloro-5-methylphenyl)-N-ethyl-N-methylformimidamide], the inhibition of growth at 300 ppm in the assay with Rhizoctonia solani is greater than 80%; in the assay on Alternaria solani [3] it was greater than 75%; in the assay on Botrytis cinerea, greater than 80%; in the assay on Colletotrichum capsici, greater than 80%; with Fusarium culmorum [5] it was 75%; with Septoria lycopersici it was greater than 70%. Further, the inhibition of growth at 300 ppm with Pyricularia oryzae [4] was greater than 75%. For the same molecule, the inhibition at 300 ppm with Rhizoctonia solani amounted to 100%; in the assay on Alternaria solani [3] it was 100%; with Botrytis cinerea it was 94.5%; with Colletotrichum capsici, 100%; in the assay with Fusarium culmorum [5] it was 94.5%; in the assay on Pyricularia oryzae [4], 100%. The inhibition at 300 ppm with Corynespora cassicola came to 71.2%.

On to `CCN(C)C=Nc1cc(C)c(Cc2cccc(OC(F)(F)F)c2)cc1C` [Compound 51, N′-(2,5-dimethyl-4-(3-(trifluoromethoxy)benzyl)phenyl)-N-ethyl-N-methylformimidamide], for which the inhibition of growth at 300 ppm was greater than 80% in the assay on Rhizoctonia solani; greater than 75% with Alternaria solani [3]; greater than 80% with Botrytis cinerea; greater than 80% in the assay on Colletotrichum capsici; 75% in the assay on Fusarium culmorum [5]; greater than 70% with Septoria lycopersici. For the same molecule, the inhibition of growth at 300 ppm in the assay on Pyricularia oryzae [4] was greater than 75%. In addition, the pest or weed control at 500 ppm in the assay with Pyricularia oryzae [1] was in the range of 70 to 100%.

Turning to `CCN(C)C=Nc1cc(C)c(Cc2ccc(C#N)cc2)cc1C` [Compound 48, N′-(4-(4-cyanobenzyl)-2,5-dimethylphenyl)-N-ethyl-N-methylformimidamide], the inhibition of growth at 300 ppm in the assay with Rhizoctonia solani is greater than 80%; in the assay with Alternaria solani [3] it was greater than 75%; with Botrytis cinerea it was greater than 80%; in the assay on Colletotrichum capsici it was greater than 80%; with Fusarium culmorum [5], 75%; with Septoria lycopersici, greater than 70%. Also, the inhibition of growth at 300 ppm in the assay on Pyricularia oryzae [4] was greater than 75%. Besides, the pest or weed control at 500 ppm in the assay with Pyricularia oryzae [1] and in the assay with Alternaria solani [6] was 70 to 100% in each case.

Take `CCN(C)C=Nc1cc(C)c(C(C#N)c2cccc(C(F)(F)F)c2)cc1C` (stereo not shown) [N′-(4-(cyano(3-(trifluoromethyl)phenyl)methyl)-2,5-dimethylphenyl)-N-ethyl-N-methylformimidamide]: the inhibition at 300 ppm was 100% in the assay with Rhizoctonia solani; 100% with Alternaria solani [3]; 100% in the assay on Botrytis cinerea (setting [7]); 100% with Colletotrichum capsici; 0% in the assay on Fusarium culmorum [5]; 100% with Pyricularia oryzae [4]. The molecule also gave an inhibition at 300 ppm in the assay on Corynespora cassicola of 64.4%.

As to `CCN(C)C=Nc1cc(C)c(Cc2ccc(F)cc2Cl)cc1C` [Compound 110, N′-(4-(2-chloro-4-fluorobenzyl)-2,5-dimethylphenyl)-N-ethyl-N-methylformimidamide], the inhibition of growth at 300 ppm is greater than 80% with Rhizoctonia solani; greater than 75% with Alternaria solani [3]; greater than 80% in the assay with Botrytis cinerea; greater than 80% in the assay with Colletotrichum capsici; 75% in the assay with Fusarium culmorum [5]; greater than 70% in the assay on Septoria lycopersici. The inhibition of growth at 300 ppm in the assay with Pyricularia oryzae [4] is greater than 75%. In addition, the pest or weed control at 500 ppm with Pyricularia oryzae [1] lay within 70 to 100%.

Regarding `Cc1cc(N=CN2CCOCC2)c(C)cc1Cc1ccccc1Cl` [Compound 63, N-(4-(2-chlorobenzyl)-2,5-dimethylphenyl)-1-morpholinomethanimine], the inhibition of growth at 300 ppm with Rhizoctonia solani is greater than 80%; with Alternaria solani [3], greater than 75%; in the assay with Botrytis cinerea it was greater than 80%; in the assay with Colletotrichum capsici it was greater than 80%; with Fusarium culmorum [5], 75%; with Septoria lycopersici, greater than 70%. The inhibition of growth at 300 ppm with Pyricularia oryzae [4] was greater than 75%. Further, the pest or weed control at 500 ppm with Pyricularia oryzae [1] lay within 70 to 100%.

For `Cc1cc(C(C#N)c2cccc(C(F)(F)F)c2)c(C)cc1N=CN(C)C` (stereo not shown) [N′-(4-(cyano(3-(trifluoromethyl)phenyl)methyl)-2,5-dimethylphenyl)-N,N-dimethylformimidamide, reference compound], the inhibition at 300 ppm came to 80.9% with Rhizoctonia solani; 79.8% in the assay with Alternaria solani [3]; 77.3% with Botrytis cinerea (setting [7]); 41.3% in the assay with Colletotrichum capsici; 0% in the assay on Fusarium culmorum [5]; 100% in the assay on Pyricularia oryzae [4]. The same molecule yielded an inhibition at 300 ppm with Corynespora cassicola of 58.7%.

For the origin of these results see patent publication US11155517B2, “4-substituted phenylamine derivatives and their use to protect crops by fighting undesired phytopathogenic micoorganisms” (PI INDUSTRIES LTD., priority 2016, dated 2021).
